“And” between values parts separate entries of the source, which are not always exact repeats. Equal values may be shown once. Read-outs that look alike come from different tables or passages of the source.
Assays:
[1] = Particle size distribution by laser diffraction light scattering; assay type: physicochemical; settings: API form Freebase
Procedure: Particle size distribution can be analyzed using laser diffraction light scattering, e.g., with a Horiba LA-950 V2. Generic assumptions are made in setting conditions and the refractive index value. The distributions are volume based. Sample density is adjusted to a generic range of percent transmission on the blue LED light source. A small sample cell (filled with water) can be used rather than the flow through cell, to minimize sample quantity.
Particle size distribution was analyzed using laser diffraction light scattering with a Horiba LA-950 V2. Generic assumptions were made in setting conditions and the refractive index value. The distributions were volume based. Sample density was adjusted to a generic range of percent transmission on the blue LED light source. A small sample cell (filled with water) was used rather than the flow through cell, to minimize sample quantity.

[2] = Ocular pharmacokinetics of formulations, Example 20-4; assay type: in vivo, Dutch Belted rabbits; settings: Dutch Belted, rabbit, topical, PSD 30 μm/XL, HPMC 0.08%, glycerol 2.5%, HEC 0.2%, VitK3 1 μM, pH ≈7.5, QD, Day 5, 1 hr post dose
Procedure: The study design (Table 18-1) consisted of forty-nine (49) Dutch Belted rabbits, each receiving a 30 μL bilateral topical ocular dose.
Ocular sampling occurred one hour following the first daily dose on Day 5 for all groups. Whole blood samples using K2EDTA as an anticoagulant were collected from all animals on Day 5, 1 hour post dose. The whole blood was placed on ice until samples were spun in a centrifuge to separate the plasma. Aqueous humor, conjunctiva, cornea, central retina, peripheral retina, central choroid, and peripheral choroid samples were collected following necropsy. Samples were then frozen at −70° C. or lower. For all Groups 1-16, plasma, central retina, central choroid, and cornea samples were assayed for PAN-90806.

EGFR = biological target: T1, EGFR (Homo sapiens, UniProt P00533); test: EGFR tyrosine phosphorylation assay in hTCEpi cells with a second active agent; assay type: cell-based; settings: vitamin K 50 μM, nicotinic acid 10 μM or nicotinamide 10 μM, 4 hours pre-treatment; EGF 50 ng/ml
T1 construct: endogenous in cells; host or cells: hTCEpi (immortalized corneal epithelial cells)
T1 sequence (P00533 25-1210): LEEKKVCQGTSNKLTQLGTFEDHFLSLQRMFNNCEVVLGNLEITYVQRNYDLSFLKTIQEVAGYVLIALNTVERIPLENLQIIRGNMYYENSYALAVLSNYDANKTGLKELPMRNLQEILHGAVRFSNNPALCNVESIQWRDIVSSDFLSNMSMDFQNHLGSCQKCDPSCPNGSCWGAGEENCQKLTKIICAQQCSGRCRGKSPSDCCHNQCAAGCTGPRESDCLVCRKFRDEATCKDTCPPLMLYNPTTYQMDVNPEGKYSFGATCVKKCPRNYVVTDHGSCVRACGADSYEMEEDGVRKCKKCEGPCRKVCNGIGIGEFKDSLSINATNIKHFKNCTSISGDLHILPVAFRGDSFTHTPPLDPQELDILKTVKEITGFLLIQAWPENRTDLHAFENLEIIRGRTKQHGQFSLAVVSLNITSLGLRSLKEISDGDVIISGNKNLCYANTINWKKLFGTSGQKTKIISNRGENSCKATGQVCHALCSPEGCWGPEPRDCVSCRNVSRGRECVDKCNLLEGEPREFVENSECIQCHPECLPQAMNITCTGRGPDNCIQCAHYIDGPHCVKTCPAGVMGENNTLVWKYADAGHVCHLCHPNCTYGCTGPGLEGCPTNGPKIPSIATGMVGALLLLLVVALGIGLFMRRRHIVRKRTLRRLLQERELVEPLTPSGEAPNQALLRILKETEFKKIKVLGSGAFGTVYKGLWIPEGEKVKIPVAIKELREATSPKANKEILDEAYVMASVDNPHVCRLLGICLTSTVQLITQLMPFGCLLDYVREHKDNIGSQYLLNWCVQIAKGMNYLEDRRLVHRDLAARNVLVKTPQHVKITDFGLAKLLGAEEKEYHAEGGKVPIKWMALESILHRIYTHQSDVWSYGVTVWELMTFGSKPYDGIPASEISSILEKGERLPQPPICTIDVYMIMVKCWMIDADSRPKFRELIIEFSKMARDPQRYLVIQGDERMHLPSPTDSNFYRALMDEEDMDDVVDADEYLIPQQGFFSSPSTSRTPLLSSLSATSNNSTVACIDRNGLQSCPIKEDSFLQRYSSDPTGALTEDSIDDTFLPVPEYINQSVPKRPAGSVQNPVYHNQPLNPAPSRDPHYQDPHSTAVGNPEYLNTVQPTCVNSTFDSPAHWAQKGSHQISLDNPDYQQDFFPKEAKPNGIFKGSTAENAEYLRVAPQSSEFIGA
Procedure: An EGFR tyrosine assay in corneal epithelial cells is run to determine if Vitamin K or nicotinic acid/nicotinamide can overcome inhibition of EGFR and if there is an increase in EGFR activity. […] Cells are harvested cells and immunoblotted for determination of phosphorylated EGFR (tyrosine 1068 and tyrosine 1045) and total EGFR concentration which was used to determine receptor activity (IC50).
The cells were then incubated with EGF (50 ng/ml) for 15 minutes. Cells were harvested and cell lysates were immunoblotted for determination of phosphorylated EGFR (tyrosine 1068 and tyrosine 1045) and total EGFR concentration.

[3] = excipient PVP K-29/32, roller speed high, media size 0.8 mm, particles under storage 1 day, RT
[4] = excipient PVP K-29/32, roller speed high, media size 0.8 mm, particles under storage 15 days, RT
[5] = excipient Pluronic F-127, milling not given, particles under storage 6 days, 40° C.
[6] = excipient Pluronic F-127, roller speed high, media size 0.8 mm, particles under storage 3 days, RT
[7] = excipient Pluronic F-127, roller speed low, media size 3 mm
[8] = excipient Tween 80, milling not given
[9] = excipient Tween 80, roller speed high, media size 0.8 mm, particles under storage 28 days, RT

In the case of `NC(=O)c1c(OCc2c(F)cc(Br)cc2F)nsc1NC(=O)NCCCCN1CCCC1` [Formula II], the “PSD (Particle Size Distribution) Mean” value [1, 3] is reported as roughly 210 nm, the “PSD (Particle Size Distribution) Median” value [1, 3] is reported as roughly 150 nm and the “PSD (Particle Size Distribution) Mean” value [1, 4] is reported as roughly 170 nm. The “PSD (Particle Size Distribution) Median” value [1, 4] was roughly 130 nm, the “PSD (Particle Size Distribution) Mean” value [1, 5] was roughly 3100 nm and the “PSD (Particle Size Distribution) Median” value [1, 5] was roughly 2500 nm. For the same molecule, the “PSD (Particle Size Distribution) Mean” value [1, 6] was roughly 130 nm, the “PSD (Particle Size Distribution) Median” value [1, 6] was roughly 120 nm and the “PSD (Particle Size Distribution) Mean” value [1, 7] was ~8100 nm and ~4700 nm. The “PSD (Particle Size Distribution) Median” value [1, 7] was ~6200 nm and ~4400 nm, the “PSD (Particle Size Distribution) Mean” value [1, 8] was roughly 2000 nm and the “PSD (Particle Size Distribution) Median” value [1, 8] was roughly 300 nm. For the same molecule, the “PSD (Particle Size Distribution) Mean” value [1, 9] was roughly 370 nm, the “PSD (Particle Size Distribution) Median” value [1, 9] was roughly 160 nm and the “PSD (Particle Size Distribution) Median” value ([1]; excipient Tween 80, roller speed low, media size 3 mm) was ~5500 nm and ~3900 nm and ~3700 nm and ~3500 nm. For the same molecule, the concentration at 1 h ([2]; central choroid, 4 mg/mL (30 μL per eye, bilateral), Group 4: 4 mg/mL FB suspension, read-out: Central Choroid concentration) was 203 nM, the concentration at 1 h ([2]; central choroid, Group 5: 6 mg/mL FB suspension, read-out: Central Choroid concentration) was 203 nM and the concentration at 1 h ([2]; central retina, 4 mg/mL (30 μL per eye, bilateral), Group 4: 4 mg/mL FB suspension, read-out: Central Retina concentration) was 38.4 nM. The concentration at 1 h ([2]; central retina, Group 5: 6 mg/mL FB suspension, read-out: Central Retina concentration) was 47.9 nM, the concentration at 1 h ([2]; cornea, 4 mg/mL (30 μL per eye, bilateral), Group 4: 4 mg/mL FB suspension, read-out: Cornea concentration) was 21300 nM and the concentration at 1 h ([2]; cornea, Group 5: 6 mg/mL FB suspension, read-out: Cornea concentration) was 23800 nM. The concentration at 1 h ([2]; plasma, 4 mg/mL (30 μL per eye, bilateral), Group 4: 4 mg/mL FB suspension, read-out: Plasma concentration) was 3.27 nM and the concentration at 1 h ([2]; plasma, Group 5: 6 mg/mL FB suspension, read-out: Plasma concentration) was 3.91 nM.

In the case of `NC(=O)c1cccnc1` [nicotinamide], the “Effect on Formula I or II compound-mediated EGFR inhibition” value (EGFR) is reported as “overcome”.

In the case of `O=C(O)c1cccnc1` [nicotinic acid], the “Effect on Formula I or II compound-mediated EGFR inhibition” value (EGFR) is reported as “overcome”.

— US10183014B2, “Ocular formulations for drug-delivery and protection of the anterior segment of the eye” (PanOptica, Inc., priority 2014, dated 2019)
